Read-outs that look alike come from different tables or passages of the source.
Key:
[1] = biological target: T1, Human recombinant PDE2A (hPDE2A) (Homo sapiens, UniProt O00408); test: In vitro assay PDE2A (SPA, 3H-cGMP hydrolysis); type: biochemical; details: for Emax: read-out: hPDE2A Emax; for IC50: read-out: hPDE2A pIC50 (converted)
T1 construct: His tag (inferred from metal chelate purification); made in house; host or cells: Sf9 insect cells (baculovirus)

[2] = biological target: T2, Human recombinant PDE3A (hPDE3A) (Homo sapiens, UniProt Q14432); test: In vitro assay PDE3A (SPA, 3H-cAMP hydrolysis); type: biochemical; details: for IC50: hPDE3B pIC50, read-out: pIC50 (converted); for Emax: read-out: hPDE3B Emax, read-out: Emax;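 for all read-outs here: the method names PDE3A and the table heading PDE3B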
T2 construct: purchased Scottish Biomedical; host or cells: Sf9 insect cells
Procedure, shortened: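 Radiometric SPA measuring [3H]-cAMP hydrolysis (0.4 μM cAMP, 2.4 μCi/ml) over 60 min at room temperature, in Tris pH 7.8 buffer with MgCl2 and EGTA, 1% DMSO. Enzyme: recombinant human brain PDE3A expressed in Sf9 cells, used as partially purified lysate. Counts compared with enzyme-free blanks and vehicle controls.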

[3] = biological target: T3, Human recombinant PDE10A (hPDE10A) (Homo sapiens, UniProt Q9Y233); test: In vitro assay PDE10A, human clone (SPA, 3H-cAMP hydrolysis); type: biochemical
T3 construct: His tag (inferred from metal chelate purification); made in house; host or cells: Sf9 insect cells (baculovirus)
Procedure, shortened: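 Hydrolysis of 3H-cAMP (60 nM cAMP, 0.008 μCi tracer) proceeded for 60 min at room temperature, with the product detected by SPA bead scintillation counting. The enzyme was hPDE10A from baculovirus-infected Sf9 cells in Tris pH 7.8 buffer with MgCl2 and EGTA, and compounds were at 1% DMSO final. Blanks lacked enzyme.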

PDE2A = biological target: T4, PDE2A (Rattus norvegicus, UniProt Q01062); test: PDE2 occupancy by test compounds, ex-vivo autoradiography with [3H]B-17a; type: in vivo, Male Wistar rats; details: po, 10 mg/kg, route PO (oral), percentage receptor occupancy, ex-vivo autoradiography, striatum
T4 construct: Twenty μm-thick striatal sections were cut; from tissue; host or cells: rat brain, striatal sections
T4 sequence (Q01062 1-928): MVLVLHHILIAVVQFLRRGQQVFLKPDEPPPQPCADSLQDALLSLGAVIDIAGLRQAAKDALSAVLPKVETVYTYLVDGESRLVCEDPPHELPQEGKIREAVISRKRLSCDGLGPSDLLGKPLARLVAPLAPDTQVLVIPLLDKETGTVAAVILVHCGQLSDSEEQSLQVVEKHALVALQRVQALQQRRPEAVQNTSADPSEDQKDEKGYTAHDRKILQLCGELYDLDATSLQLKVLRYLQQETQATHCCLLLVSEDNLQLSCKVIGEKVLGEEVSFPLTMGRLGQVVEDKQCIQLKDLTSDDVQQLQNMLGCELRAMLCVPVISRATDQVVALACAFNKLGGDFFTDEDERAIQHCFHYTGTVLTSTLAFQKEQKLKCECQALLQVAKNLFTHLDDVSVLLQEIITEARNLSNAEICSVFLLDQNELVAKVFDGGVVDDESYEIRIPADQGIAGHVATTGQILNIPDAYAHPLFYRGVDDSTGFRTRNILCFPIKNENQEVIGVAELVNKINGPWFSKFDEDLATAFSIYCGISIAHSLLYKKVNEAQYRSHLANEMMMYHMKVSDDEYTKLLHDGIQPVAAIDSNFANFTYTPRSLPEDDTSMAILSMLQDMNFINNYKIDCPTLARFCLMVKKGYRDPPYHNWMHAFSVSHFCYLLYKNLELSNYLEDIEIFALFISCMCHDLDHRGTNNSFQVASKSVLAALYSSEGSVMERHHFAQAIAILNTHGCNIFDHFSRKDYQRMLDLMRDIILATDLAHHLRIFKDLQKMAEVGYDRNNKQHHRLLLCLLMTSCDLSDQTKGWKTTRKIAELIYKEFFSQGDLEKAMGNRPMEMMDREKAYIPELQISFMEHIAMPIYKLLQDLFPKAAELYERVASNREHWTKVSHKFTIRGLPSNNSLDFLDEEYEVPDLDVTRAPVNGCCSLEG

[4] = human clone by default (no (r) mark), read-out: hPDE10A2 or rPDE10A2 Emax
[5] = human clone by default (no (r) mark), read-out: hPDE10A2 or rPDE10A2 pIC50 (converted)
[6] = human recombinant PDE2A, 10 μM cGMP substrate
[7] = human clone (h), default, read-out: hPDE10A2 pIC50 (converted)
[8] = human clone (h), default, read-out: hPDE10A2 Emax

T1 sequence (O00408 whole entry): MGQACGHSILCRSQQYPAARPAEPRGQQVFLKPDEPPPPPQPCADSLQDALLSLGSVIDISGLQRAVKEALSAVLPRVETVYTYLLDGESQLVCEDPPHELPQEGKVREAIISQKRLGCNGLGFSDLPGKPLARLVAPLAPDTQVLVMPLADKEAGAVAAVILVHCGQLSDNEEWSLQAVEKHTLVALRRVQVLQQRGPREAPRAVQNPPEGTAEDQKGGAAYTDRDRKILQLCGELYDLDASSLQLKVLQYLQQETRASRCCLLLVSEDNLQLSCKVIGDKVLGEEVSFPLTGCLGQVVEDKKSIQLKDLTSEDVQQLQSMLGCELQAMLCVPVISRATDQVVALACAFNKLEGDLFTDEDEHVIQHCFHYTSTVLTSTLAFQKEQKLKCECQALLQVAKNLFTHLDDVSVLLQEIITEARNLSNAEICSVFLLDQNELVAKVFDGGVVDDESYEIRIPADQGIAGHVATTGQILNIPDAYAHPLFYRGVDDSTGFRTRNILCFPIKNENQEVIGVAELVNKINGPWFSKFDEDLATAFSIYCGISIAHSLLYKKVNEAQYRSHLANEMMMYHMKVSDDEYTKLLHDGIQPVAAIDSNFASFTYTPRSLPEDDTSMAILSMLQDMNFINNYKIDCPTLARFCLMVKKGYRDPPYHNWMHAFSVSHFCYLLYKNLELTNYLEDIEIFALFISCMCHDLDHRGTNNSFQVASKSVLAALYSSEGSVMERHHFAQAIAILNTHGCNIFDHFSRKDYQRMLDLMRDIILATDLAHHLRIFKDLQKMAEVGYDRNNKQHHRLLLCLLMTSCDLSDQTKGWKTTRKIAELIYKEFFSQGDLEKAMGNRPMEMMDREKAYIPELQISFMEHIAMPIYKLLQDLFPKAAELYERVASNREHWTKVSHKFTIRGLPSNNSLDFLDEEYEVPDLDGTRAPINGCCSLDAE
T3 sequence (Q9Y233 267-1055): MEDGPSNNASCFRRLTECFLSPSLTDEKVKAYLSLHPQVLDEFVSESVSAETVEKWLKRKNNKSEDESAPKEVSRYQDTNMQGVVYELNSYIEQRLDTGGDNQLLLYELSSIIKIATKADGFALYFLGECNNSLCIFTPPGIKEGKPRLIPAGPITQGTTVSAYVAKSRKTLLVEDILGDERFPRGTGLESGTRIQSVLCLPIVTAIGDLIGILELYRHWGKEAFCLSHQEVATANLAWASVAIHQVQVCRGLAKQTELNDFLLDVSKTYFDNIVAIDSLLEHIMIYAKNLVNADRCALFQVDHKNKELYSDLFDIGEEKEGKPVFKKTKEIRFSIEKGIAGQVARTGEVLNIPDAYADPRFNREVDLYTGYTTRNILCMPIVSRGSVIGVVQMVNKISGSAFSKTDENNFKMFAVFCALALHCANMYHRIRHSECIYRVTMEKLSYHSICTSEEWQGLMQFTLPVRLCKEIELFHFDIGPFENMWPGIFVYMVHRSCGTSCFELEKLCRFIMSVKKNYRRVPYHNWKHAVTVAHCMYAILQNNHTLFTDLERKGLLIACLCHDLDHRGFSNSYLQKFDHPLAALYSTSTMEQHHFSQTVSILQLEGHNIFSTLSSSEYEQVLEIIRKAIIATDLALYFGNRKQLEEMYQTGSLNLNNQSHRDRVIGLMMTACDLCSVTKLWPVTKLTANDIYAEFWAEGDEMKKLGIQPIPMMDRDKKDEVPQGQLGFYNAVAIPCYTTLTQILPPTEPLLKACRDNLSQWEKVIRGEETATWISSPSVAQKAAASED
T2 sequence (Q14432 whole entry): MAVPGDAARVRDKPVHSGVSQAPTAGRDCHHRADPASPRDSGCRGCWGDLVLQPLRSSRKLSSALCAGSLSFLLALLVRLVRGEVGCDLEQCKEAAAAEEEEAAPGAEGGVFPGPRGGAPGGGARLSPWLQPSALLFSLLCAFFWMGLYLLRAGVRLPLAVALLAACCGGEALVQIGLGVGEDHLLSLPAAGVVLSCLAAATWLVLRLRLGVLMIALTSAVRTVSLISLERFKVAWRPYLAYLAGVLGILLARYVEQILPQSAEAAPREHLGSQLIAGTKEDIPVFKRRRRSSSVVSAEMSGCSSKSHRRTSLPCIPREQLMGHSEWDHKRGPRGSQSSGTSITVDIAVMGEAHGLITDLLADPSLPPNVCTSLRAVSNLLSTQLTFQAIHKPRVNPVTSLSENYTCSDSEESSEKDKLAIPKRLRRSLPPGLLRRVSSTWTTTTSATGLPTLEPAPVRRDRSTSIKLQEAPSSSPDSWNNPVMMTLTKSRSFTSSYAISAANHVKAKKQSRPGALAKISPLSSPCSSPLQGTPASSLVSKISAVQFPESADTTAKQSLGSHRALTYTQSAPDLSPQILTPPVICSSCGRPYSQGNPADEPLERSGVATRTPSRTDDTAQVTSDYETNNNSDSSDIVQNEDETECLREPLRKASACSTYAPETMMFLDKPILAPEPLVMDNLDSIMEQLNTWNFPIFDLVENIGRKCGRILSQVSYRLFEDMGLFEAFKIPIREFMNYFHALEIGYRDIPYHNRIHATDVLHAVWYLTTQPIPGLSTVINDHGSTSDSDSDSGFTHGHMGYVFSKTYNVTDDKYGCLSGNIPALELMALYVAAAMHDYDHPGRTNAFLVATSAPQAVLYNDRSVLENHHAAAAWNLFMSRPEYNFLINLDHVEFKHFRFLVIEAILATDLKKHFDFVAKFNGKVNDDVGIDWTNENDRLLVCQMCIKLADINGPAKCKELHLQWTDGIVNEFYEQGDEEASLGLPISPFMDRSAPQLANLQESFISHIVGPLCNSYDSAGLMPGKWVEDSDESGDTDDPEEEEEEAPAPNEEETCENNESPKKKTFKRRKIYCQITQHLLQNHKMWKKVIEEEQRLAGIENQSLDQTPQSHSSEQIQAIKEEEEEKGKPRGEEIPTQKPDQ

| Structure (SMILES) | melting point | Emax [1] | IC50 [1] | IC50 [2] | Emax [2] | Emax [3, 4] | IC50 [3, 5] | hPDE2A Emax [1] | hPDE2A Emax ([1]; human recombinant PDE2A) | IC50 [1, 6] | hPDE3B Emax [2] | hPDE10A2 Emax ([3]; human clone (h), default) | IC50 [3, 7] | receptor occupancy at 10 mg/kg (PDE2A) | Emax ([1]; human recombinant PDE2A) | Emax [3, 8] |
| --- | --- | --- | --- | --- | --- | --- | --- | --- | --- | --- | --- | --- | --- | --- | --- | --- |
| C[C@H]1CCN(C(=O)c2ccc3occc3c2)C[C@@H]1c1cc(C(F)F)nc2ncnn12 [Compound 221] | 122.37 °C | – | – | – | – | – | – | – | – | – | – | – | – | – | – | – |
| C[C@@H]1CCN(C(=O)c2cnc3c(Cl)cccc3c2)C[C@H]1c1cc(C(F)F)nc2ncnn12 [Compound 329] | 227.79 °C | 100% | 0.55 nM | 204 nM | 95% | 100% | 21.4 nM | – | – | – | – | – | – | – | – | – |
| C[C@@H]1CCN(C(=O)c2cnc3c(F)cccc3c2)C[C@H]1c1cc(C(F)F)nc2ncnn12 [Compound 325] | 226.36 °C | 100% | 1.15 nM | 309 nM | 98% | 98% | 64.6 nM | – | – | – | – | – | – | – | – | – |
| O=C(c1cc(Cl)cc(Cl)c1)N1[C@H]2CC[C@H](c3cc(C(F)F)nc4ncnn34)[C@@H]1CC2 [Compound 333] | 291.55 °C | 99% | 8.13 nM | 6920 nM | 63% | 93% | 708 nM | – | – | – | – | – | – | – | – | – |
| Cc1cc(C(=O)N2[C@H]3CC[C@H](c4cc(C(F)F)nc5ncnn45)[C@@H]2CC3)cc(C)n1 (racemic) [Compound 31] | 190.16 °C | – | 2.51 nM | – | – | – | – | 100 | 100 | 2.51 nM | 8 | 84 | 1120 nM | – | – | – |
| C[C@@H]1CCN(C(=O)c2ccc3c(ccn3C)c2)C[C@H]1c1cc(C(F)F)nc2ncnn12 [Compound 327] | 194.86 °C | 101% | 0.417 nM | 77.6 nM | 99% | 100% | 20.4 nM | – | – | – | – | – | – | – | – | – |
| COc1cc(C(=O)N2CC[C@@H](C)[C@H](c3cc(C(F)F)nc4ncnn34)C2)c(F)c(C)n1 [Compound 398] | – | 99% | 4.9 nM | 5250 nM | 67% | 95% | 589 nM | – | – | – | – | – | – | 29% | – | – |
| C[C@@H]1CCN(C(=O)c2cc(C3CC3)ncc2F)C[C@@]1(F)c1cc(C(F)F)nc2ncnn12 [Compound 277] | – | 99% | 75.9 nM | > 10000 nM | 14% | 27% | > 10000 nM | – | – | – | – | – | – | -4% | – | – |
| Cc1ccc2cc(C(=O)N3CC[C@@H](C)[C@H](c4cc(C(F)F)nc5ncnn45)C3)c(C)nc2c1 [Compound 60] | – | 100% | 0.851 nM | 1100 nM | 92% | – | – | – | – | 0.851 nM | – | – | 151 nM | 32% | 100% | 97% |
| C[C@@H]1CCN(C(=O)c2cc3c(nc2Cl)CCCC3)C[C@H]1c1cc(C(F)F)nc2ncnn12 [Compound 170] | – | 100% | 4.57 nM | 2140 nM | 84% | – | – | – | – | 4.57 nM | – | – | 1290 nM | 1% | 100% | 84% |

Source: patent US10947242B2, “[1,2,4]triazolo[1,5and#8208;A]pyrimidine compounds as PDE2 inhibitors” (Janssen Pharmaceutica NV, priority 2016, dated 2021)
